IC50 data for 15 compounds are collected here from patent US12595253B2, “Benzamides of pyrazolylamino-pyrimidinyl derivatives, and compositions and methods thereof” (LYNK PHARMACEUTICALS CO. LTD., priority 2019, dated 2026).

Where two headings read alike, the source gives them in different places. Some results are limits rather than exact numbers.

One experiment has as its target T1, JAK1 (Homo sapiens, UniProt P23458).
T1 construct: purchased Carna Biosciences
Kind of experiment: JAK1 microfluidic kinase assay (Caliper EZ Reader II, FAM labeled peptide substrate). The experiment is classed as biochemical. Summed up: (§1)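 Compounds, serially diluted 3-fold from 5 μM, were preincubated 10 min with enzyme at ambient temperature before reaction in HEPES/Brij35/MgCl2/DTT buffer (1% DMSO final), tuned to 10% peptide conversion. After EDTA stop, FAM-peptide phosphorylation was measured by Caliper EZ Reader II; IC50 fitted from percent-inhibition curves.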

The target of the next experiment is T2, JAK2 (Homo sapiens, UniProt O60674).
T2 construct: purchased Carna Biosciences
T2 sequence (O60674 whole entry): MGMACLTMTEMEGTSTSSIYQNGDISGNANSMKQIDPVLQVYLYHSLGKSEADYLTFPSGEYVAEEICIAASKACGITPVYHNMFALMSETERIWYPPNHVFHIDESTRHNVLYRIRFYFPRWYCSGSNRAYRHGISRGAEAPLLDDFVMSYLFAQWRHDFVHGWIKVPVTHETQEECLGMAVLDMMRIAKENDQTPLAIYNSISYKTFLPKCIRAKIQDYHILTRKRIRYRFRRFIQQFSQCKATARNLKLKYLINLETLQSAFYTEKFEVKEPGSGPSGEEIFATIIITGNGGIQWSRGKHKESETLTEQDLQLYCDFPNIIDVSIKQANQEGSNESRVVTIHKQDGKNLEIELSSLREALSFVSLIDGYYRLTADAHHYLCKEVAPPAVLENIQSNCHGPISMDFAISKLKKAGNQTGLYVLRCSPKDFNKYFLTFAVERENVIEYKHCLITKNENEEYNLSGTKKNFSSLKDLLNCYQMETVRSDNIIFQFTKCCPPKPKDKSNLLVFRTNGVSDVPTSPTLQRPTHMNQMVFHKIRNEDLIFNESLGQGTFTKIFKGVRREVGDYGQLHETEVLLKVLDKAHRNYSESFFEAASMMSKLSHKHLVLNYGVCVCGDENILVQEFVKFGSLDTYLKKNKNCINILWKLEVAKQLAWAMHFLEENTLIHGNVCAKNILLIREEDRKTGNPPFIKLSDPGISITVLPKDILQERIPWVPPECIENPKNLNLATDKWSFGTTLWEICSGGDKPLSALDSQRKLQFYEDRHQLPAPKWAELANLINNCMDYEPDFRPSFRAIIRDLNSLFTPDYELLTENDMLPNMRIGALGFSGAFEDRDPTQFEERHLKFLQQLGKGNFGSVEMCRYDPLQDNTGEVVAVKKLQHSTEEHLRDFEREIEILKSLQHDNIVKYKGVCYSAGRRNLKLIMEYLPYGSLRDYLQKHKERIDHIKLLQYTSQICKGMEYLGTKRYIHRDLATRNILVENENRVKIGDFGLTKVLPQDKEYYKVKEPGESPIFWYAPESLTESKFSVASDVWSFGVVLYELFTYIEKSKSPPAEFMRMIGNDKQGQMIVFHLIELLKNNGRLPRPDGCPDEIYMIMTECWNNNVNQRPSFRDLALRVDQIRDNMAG
Kind of experiment: JAK2 microfluidic kinase assay (Caliper EZ Reader II, FAM labeled peptide substrate). The experiment is classed as biochemical. Put shortly:
as §1

In a further experiment the target is T3, TYK2 (Homo sapiens, UniProt P29597).
T3 construct: purchased Carna Biosciences
T3 sequence (P29597 whole entry): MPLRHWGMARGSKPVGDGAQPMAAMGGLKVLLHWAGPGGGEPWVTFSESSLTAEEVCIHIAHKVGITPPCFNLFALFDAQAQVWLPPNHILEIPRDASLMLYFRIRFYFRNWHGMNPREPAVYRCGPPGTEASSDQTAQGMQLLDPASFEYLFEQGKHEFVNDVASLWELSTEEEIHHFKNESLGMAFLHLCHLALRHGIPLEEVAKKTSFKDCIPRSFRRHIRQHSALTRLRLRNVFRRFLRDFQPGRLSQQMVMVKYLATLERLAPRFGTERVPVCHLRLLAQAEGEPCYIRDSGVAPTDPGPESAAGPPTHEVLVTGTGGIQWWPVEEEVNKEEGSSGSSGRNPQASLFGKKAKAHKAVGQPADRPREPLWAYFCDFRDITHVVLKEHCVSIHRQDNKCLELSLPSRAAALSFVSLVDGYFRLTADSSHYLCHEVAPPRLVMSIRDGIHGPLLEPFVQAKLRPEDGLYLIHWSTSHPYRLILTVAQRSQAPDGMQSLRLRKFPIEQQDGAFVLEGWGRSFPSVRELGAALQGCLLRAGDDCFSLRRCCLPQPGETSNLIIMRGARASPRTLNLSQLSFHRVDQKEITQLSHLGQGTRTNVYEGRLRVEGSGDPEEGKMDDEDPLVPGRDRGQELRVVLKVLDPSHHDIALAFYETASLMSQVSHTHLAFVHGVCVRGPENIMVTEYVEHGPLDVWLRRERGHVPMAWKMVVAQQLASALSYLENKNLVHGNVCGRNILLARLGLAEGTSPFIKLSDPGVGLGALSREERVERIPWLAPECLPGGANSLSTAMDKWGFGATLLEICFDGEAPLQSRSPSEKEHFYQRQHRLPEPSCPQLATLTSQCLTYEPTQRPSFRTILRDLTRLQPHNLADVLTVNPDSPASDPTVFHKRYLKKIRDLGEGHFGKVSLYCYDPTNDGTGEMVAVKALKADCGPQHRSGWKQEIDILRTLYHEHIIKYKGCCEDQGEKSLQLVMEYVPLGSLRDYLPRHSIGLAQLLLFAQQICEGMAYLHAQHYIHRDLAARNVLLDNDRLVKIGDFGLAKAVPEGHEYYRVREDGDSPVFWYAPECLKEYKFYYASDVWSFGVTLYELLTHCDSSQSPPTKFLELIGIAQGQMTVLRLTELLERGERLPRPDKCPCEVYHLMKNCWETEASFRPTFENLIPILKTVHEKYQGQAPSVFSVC
Kind of experiment: TYK2 microfluidic kinase assay (Caliper EZ Reader II, FAM labeled peptide substrate). The experiment is classed as biochemical. The settings on record: IC50 TYK2 ([…]) (1 mM ATP), TYK2 […], 1 mM ATP. Summed up: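 3-fold series, top 5 μM, 1% DMSO; 10 min preincubation with enzyme, RT. Buffer 50 mM HEPES/10 mM MgCl2/2 mM DTT/0.01% Brij35. Run times JAK1 120 min, JAK2 20, JAK2V617F 30, TYK2 10. Stopped with 50 mM EDTA; IC50 from % inhibition vs no-enzyme and DMSO controls.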

For a further experiment, the target named is T4, CYP1A2 (Homo sapiens, UniProt P05177).
T4 construct: 0.2 mg/mL human liver microsomes was pre-incubated in 180 μL reaction mixture; from tissue; host or cells: pooled human liver microsomes
T4 sequence (P05177 1-516): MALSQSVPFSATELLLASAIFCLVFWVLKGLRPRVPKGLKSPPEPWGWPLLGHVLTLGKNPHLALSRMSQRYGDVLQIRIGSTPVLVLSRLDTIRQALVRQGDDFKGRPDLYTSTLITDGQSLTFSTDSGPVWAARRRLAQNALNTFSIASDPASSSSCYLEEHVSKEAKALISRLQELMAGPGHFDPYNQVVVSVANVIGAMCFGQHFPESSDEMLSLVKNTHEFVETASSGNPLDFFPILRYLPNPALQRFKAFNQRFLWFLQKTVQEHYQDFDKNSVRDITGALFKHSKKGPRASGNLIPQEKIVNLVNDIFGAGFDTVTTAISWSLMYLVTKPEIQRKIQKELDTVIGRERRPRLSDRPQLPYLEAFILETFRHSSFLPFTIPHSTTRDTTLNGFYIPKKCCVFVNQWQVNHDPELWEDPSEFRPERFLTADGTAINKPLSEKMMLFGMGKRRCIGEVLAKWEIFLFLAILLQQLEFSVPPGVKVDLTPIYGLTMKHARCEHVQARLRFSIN
The experiment in a line: CYPs inhibition in pooled human liver microsomes, probe substrate Phenacetin. In kind it is in vitro ADME. The protocol: (§2) The inhibitory potential of test articles in pooled human liver microsomes was evaluated by the method using a cocktail of CYP substrates. […] For the negative control well, the test articles was replaced with 20 μL reaction buffer. After 10 min of pre-incubation at 37° C., 20 μL 10 mM NADPH cofactor was added to the pre-reaction mixtures. After another 10 min incubation, the reaction was stopped by adding 400 μL of ice cold acetonitrile solution containing tolbutamide and labetalol served as internal standards. The incubation mixtures were centrifuged at 4000×g for 20 min, and then the supernatants were analyzed by LC-MS/MS after dilution. SigmaPlot was applied to plot % control activity versus the test compound concentrations, and for non-linear regression analysis of the data. IC50 values of test articles were determined using 3-parameter logistic equation.
(Liver microsomes are vesicles of endoplasmic reticulum, rich in cytochrome P450 enzymes.)

Another experiment has as its target T5, CYP2C9 (Homo sapiens, UniProt P11712).
T5 construct: 0.2 mg/mL human liver microsomes was pre-incubated in 180 μL reaction mixture; from tissue; host or cells: pooled human liver microsomes
Kind of experiment: CYPs inhibition in pooled human liver microsomes, probe substrate Diclofenac. The experiment is classed as in vitro ADME. The protocol:
as §2

The next experiment has as its target T6, CYP2D6 (Homo sapiens, UniProt P10635).
T6 construct: 0.2 mg/mL human liver microsomes was pre-incubated in 180 μL reaction mixture; from tissue; host or cells: pooled human liver microsomes
The experiment in a line: CYPs inhibition in pooled human liver microsomes, probe substrate Dextromethorphan. In kind it is in vitro ADME. The protocol:
as §2

In a further experiment the target is T7, CYP3A4 (Homo sapiens, UniProt P08684).
T7 construct: 0.2 mg/mL human liver microsomes was pre-incubated in 180 μL reaction mixture; from tissue; host or cells: pooled human liver microsomes
T7 sequence (P08684 whole entry): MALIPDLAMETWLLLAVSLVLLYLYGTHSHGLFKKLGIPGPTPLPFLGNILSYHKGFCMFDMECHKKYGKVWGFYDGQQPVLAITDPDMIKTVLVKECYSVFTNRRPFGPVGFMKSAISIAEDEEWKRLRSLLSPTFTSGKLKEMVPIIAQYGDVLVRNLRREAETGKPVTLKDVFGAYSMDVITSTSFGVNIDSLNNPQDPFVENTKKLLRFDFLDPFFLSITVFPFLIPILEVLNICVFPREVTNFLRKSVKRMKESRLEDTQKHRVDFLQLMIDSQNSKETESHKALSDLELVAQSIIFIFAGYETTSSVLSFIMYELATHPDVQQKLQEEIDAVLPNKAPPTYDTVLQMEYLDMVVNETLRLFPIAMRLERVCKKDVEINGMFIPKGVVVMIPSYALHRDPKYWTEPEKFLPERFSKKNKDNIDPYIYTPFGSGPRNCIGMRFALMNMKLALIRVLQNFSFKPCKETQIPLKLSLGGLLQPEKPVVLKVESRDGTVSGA
The experiment in a line: CYPs inhibition in pooled human liver microsomes, probe substrate Midazolam. In kind it is in vitro ADME. The protocol: as §2

Where [1] appears, read: IC50 JAK1 (5 nM) (1 m MATP), JAK1 5 nM, 1 mM ATP.
The mark [2] stands for this setting: IC50 JAK1 (10 nM) (Km ATP), JAK1 10 nM, Km ATP.
The mark [3] stands for this setting: IC50 JAK2 ([…]) (1 mM ATP), 1 mM ATP.
Where [4] appears, read: IC50 JAK2 ([…]) (Km ATP), Km ATP.

T6 sequence (P10635 whole entry): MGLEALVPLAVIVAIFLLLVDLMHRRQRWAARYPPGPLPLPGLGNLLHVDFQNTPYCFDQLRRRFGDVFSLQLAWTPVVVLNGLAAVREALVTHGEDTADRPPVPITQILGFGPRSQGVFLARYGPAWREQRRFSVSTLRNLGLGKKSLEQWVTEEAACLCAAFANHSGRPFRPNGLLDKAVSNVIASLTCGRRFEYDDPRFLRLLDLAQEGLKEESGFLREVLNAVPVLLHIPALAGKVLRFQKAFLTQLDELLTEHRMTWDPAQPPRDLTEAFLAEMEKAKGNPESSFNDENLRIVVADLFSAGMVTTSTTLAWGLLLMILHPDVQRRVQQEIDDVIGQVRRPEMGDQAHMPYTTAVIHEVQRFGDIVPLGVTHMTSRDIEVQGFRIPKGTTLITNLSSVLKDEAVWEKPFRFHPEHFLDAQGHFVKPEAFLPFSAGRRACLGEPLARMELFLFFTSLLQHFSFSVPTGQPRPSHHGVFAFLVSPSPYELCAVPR
T5 sequence (P11712 whole entry): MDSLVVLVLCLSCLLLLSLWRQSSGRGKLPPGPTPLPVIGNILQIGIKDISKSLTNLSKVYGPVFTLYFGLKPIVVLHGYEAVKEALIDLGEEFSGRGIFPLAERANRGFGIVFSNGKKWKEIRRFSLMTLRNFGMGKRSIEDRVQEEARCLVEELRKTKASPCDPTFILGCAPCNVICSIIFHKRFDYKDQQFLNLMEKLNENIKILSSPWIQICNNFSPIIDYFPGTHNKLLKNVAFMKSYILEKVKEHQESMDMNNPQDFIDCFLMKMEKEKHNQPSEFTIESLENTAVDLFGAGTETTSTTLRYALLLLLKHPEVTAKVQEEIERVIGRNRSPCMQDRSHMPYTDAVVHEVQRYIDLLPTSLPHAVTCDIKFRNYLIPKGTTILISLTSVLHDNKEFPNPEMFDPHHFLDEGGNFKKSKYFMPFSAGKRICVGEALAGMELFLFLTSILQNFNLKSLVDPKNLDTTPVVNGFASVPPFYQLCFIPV
T1 sequence (P23458 whole entry): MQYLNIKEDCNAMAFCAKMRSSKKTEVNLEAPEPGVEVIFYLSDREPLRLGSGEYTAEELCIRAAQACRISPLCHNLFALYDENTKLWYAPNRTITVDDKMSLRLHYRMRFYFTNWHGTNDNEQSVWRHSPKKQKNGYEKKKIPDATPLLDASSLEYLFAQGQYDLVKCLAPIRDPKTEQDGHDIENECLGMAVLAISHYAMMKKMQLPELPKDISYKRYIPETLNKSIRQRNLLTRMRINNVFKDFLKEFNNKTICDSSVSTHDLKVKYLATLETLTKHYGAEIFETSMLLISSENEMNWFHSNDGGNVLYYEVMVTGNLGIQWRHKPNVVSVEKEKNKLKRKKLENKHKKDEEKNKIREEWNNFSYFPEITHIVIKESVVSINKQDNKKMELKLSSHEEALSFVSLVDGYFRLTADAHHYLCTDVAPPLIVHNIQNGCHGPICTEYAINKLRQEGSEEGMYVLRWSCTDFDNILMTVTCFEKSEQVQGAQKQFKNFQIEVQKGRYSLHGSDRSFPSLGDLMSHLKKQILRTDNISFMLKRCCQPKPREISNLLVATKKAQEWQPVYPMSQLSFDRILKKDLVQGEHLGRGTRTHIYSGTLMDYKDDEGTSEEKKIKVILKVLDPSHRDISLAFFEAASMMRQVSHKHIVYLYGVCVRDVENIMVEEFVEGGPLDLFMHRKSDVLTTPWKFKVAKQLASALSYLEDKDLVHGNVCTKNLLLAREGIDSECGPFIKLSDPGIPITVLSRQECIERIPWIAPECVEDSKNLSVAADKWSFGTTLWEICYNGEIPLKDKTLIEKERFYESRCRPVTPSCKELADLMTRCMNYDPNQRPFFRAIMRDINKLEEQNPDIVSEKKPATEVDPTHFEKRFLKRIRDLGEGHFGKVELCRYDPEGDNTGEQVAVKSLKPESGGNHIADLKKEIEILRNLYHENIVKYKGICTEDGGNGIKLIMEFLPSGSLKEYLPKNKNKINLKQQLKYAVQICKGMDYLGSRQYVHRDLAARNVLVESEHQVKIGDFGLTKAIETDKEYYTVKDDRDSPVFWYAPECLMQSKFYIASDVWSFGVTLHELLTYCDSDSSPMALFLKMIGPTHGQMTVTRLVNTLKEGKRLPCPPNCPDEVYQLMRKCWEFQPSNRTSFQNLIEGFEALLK

A word on the IC50: it is the concentration that inhibits the measured activity by half. For `Cc1cnc(Nc2cnn(CC#N)c2)nc1-c1ccc(C(=O)NCC#N)cc1` [Example 4, N-(Cyanomethyl)-4-(2-((1-(cyanomethyl)-1H-pyrazol-4-yl)amino)-5-methylpyrimidin-4-yl)benzamide], the IC50 at JAK1 (setting [1]) was determined as 0.00875 µM; at JAK1 (setting [2]), 0.00173 µM; at JAK2 (setting [3]) it was 0.043 µM; at JAK2 (setting [4]) it was 0.00204 µM; against TYK2 it was 0.0629 µM; at CYP1A2, 45.8 µM. Moreover, the IC50 against CYP2C9, at CYP2D6 and on CYP3A4 was > 50 µM each time.
For the compound `CNC(=O)c1ccc(-c2nc(Nc3cnn(C)c3)ncc2C)cc1` [Example 10, N-Methyl-4-(5-methyl-2-((1-methyl-1H-pyrazol-4-yl)amino)pyrimidin-4-yl)benzamide], the IC50 against JAK1 (setting [1]) was > 5 µM; against JAK2 (setting [3]), > 5 µM; on JAK2 (setting [4]), 0.03 µM; against TYK2, > 5 µM.
As for `Cn1cc(Nc2ncc(Cl)c(-c3ccc(C(=O)NCC#N)cc3)n2)cn1` [Example 34, 4-(5-Chloro-2-((1-methyl-1H-pyrazol-4-yl)amino)pyrimidin-4-yl)-N-(cyanomethyl)benzamide], the IC50 on JAK1 (setting [1]) came out at 0.0118 µM; at JAK2 (setting [3]), 0.0244 µM; against JAK2 (setting [4]), 0.0007 µM; at TYK2 it was 0.0984 µM.
In the case of `C[C@@H](C#N)NC(=O)c1ccc(-c2nc(Nc3cnn(C4CCN(C)CC4)c3)ncc2Cl)cc1` [Example 43, (S)-4-(5-Chloro-2-((1-(1-methylpiperidin-4-yl)-1H-pyrazol-4-yl)amino)pyrimidin-4-yl)-N-(1-cyanoethyl)benzamide], the IC50 is 0.0112 µM against JAK1 (setting [1]); 0.00057 µM on JAK2 (setting [3]); 0.029 µM at TYK2; > 50 µM at CYP1A2; > 50 µM against CYP2C9; > 50 µM against CYP2D6. On CYP3A4, the IC50 is > 50 µM.
In the case of `CC[C@@H](C#N)NC(=O)c1ccc(-c2nc(Nc3cnn(C4CC4)c3)ncc2Cl)cc1` [Example 61, (S)-4-(5-chloro-2-((1-cyclopropyl-1H-pyrazol-4-yl)amino)pyrimidin-4-yl)-N-(1-cyanopropyl)benzamide], the IC50 was 0.00581 µM against JAK1 (setting [1]), 0.00473 µM against JAK2 (setting [3]) and 0.0528 µM against TYK2.
The corresponding values for `N#CCNC(=O)c1ccc(-c2nc(Nc3cnn(C4CC4)c3)ncc2Cl)cc1` [Example 95, 4-(5-Chloro-2-((1-cyclopropyl-1H-pyrazol-4-yl)amino)pyrimidin-4-yl)-N-(cyanomethyl)benzamide] are 0.00729 µM, 0.00448 µM and 0.0589 µM.
For the compound `C[C@@H](C#N)NC(=O)c1ccc(-c2nc(Nc3cnn(C4CC4)c3)ncc2Cl)cc1` [Example 111, (S)-4-(5-Chloro-2-((1-cyclopropyl-1H-pyrazol-4-yl)amino)pyrimidin-4-yl)-N-(1-cyanoethyl)benzamide], the IC50 came out at 0.00864 µM against JAK1 (setting [1]), 0.00279 µM on JAK2 (setting [3]) and 0.0433 µM on TYK2.
`Cc1cnc(Nc2cnn(C3CC(C)(C)OC(C)(C)C3)c2)nc1-c1ccc(C(=O)NCC#N)cc1` [Example 113, N-(cyanomethyl)-4-(5-methyl-2-((1-(2,2,6,6-tetramethyltetrahydro-2H-pyran-4-yl)-1H-pyrazol-4-yl)amino)pyrimidin-4-yl)benzamide]: the IC50 at JAK1 (read-out: IC50 JAK1 (5 nM) (1 m MATP), JAK1 5 nM, 1 mM ATP) was 0.0104 µM; at JAK2 (setting [3]), < 0.00025 µM; on TYK2 it was 0.00166 µM; at CYP1A2, > 50 µM; at CYP2C9, 14.1 µM; on CYP2D6, 35.4 µM. Also, the IC50 on CYP3A4 was determined as 19.6 µM.
With `Cc1cnc(Nc2cnn(C3CCN(C(=O)CO)CC3)c2)nc1-c1ccc(C(=O)N[C@@H](C)C#N)cc1` [Example 119, (S)—N-(1-cyanoethyl)-4-(2-((1-(1-(2-hydroxyacetyl)piperidin-4-yl)-1H-pyrazol-4-yl)amino)-5-methylpyrimidin-4-yl)benzamide], the IC50 is 0.00845 µM on JAK1 (setting [1]); < 0.00025 µM against JAK2 (setting [3]); 0.00515 µM against TYK2; > 50 µM against CYP1A2; > 50 µM against CYP2C9; > 50 µM on CYP2D6. Also, the IC50 on CYP3A4 is > 50 µM.
As for `C[C@@H](C#N)NC(=O)c1ccc(-c2nc(Nc3cnn(C)c3)ncc2Cl)cc1` [Example 125, (S)-4-(5-chloro-2-((1-methyl-1H-pyrazol-4-yl)amino)pyrimidin-4-yl)-N-(1-cyanoethyl)benzamide], the IC50 against JAK1 (setting [1]) was 0.0189 µM; against JAK2 (setting [3]) it was 0.0412 µM; at JAK2 (setting [4]), 0.00148 µM; against TYK2 it was 0.146 µM.
In the case of `C[C@@H](C#N)NC(=O)c1ccc(-c2nc(Nc3cnn(C4CCNCC4)c3)ncc2Cl)cc1` [Example 165, (S)-4-(5-chloro-2-((1-(piperidin-4-yl)-1H-pyrazol-4-yl)amino)pyrimidin-4-yl)-N-(1-cyanoethyl)benzamide], the IC50 was 0.00594 µM against JAK1 (setting [1]); 0.00116 µM at JAK2 (setting [3]); 0.065 µM against TYK2; > 50 µM against CYP1A2; 19 µM against CYP2C9; > 50 µM against CYP2D6. This compound also returned an IC50 against CYP3A4 of 41.5 µM.
As to `CC[C@@H](C#N)NC(=O)c1ccc(-c2nc(Nc3cnn(C4CCNCC4)c3)ncc2Cl)cc1` [Example 183, (S)-4-(5-chloro-2-((1-(piperidin-4-yl)-1H-pyrazol-4-yl)amino)pyrimidin-4-yl)-N-(1-cyanopropyl)benzamide], the IC50 was 0.00195 µM on JAK1 (setting [1]); 0.00042 µM against JAK2 (setting [3]); 0.00229 µM at TYK2; > 50 µM at CYP1A2; 3.18 µM on CYP2C9; 42 µM against CYP2D6. The same compound gave an IC50 against CYP3A4 of 18.2 µM.
Consider `CC[C@@H](C#N)NC(=O)c1ccc(-c2nc(Nc3cnn(C4CCN(C)CC4)c3)ncc2C)cc1` [Example 184, (S)—N-(1-Cyanopropyl)-4-(5-methyl-2-((1-(1-methylpiperidin-4-yl)-1H-pyrazol-4-yl)amino)pyrimidin-4-yl)benzamide], for which the IC50 at JAK1 (setting [1]) was 0.00061 µM; on JAK2 (setting [3]) it was 0.00037 µM; at TYK2, 0.00134 µM; against CYP1A2 it was > 50 µM; against CYP2C9, > 50 µM; against CYP2D6 it was > 50 µM. In addition, on CYP3A4, the IC50 is > 50 µM.
`CCNC(=O)c1ccc(-c2nc(Nc3cnn(C)c3)ncc2C)cc1` [Example 222, N-ethyl-4-(5-methyl-2-((1-methyl-1H-pyrazol-4-yl)amino)pyrimidin-4-yl)benzamide]: the IC50 on JAK1 (setting [1]) was > 5 µM; at JAK1 (setting [2]), 1.89 µM; against JAK2 (setting [3]), 4.52 µM; at JAK2 (setting [4]), 0.149 µM; against TYK2, > 5 µM.
In the case of `Cc1cnc(Nc2cnn(C)c2)nc1-c1ccc(C(=O)NC(C)C)cc1` [Example 223, N-isopropyl-4-(5-methyl-2-((1-methyl-1H-pyrazol-4-yl)amino)pyrimidin-4-yl)benzamide], the IC50 on JAK1 (setting [1]) is 3.94 µM; against JAK2 (setting [3]), 1.45 µM; on TYK2, > 5 µM.
